Test results reported in patent US20240246946A1, “MODULATORS OF TREX1” (Constellation Pharmaceuticals, Inc., priority 2021, published 2024).

How the values were obtained:
full length human TREX1 = molecular target: T1, full length human TREX1 (Homo sapiens, UniProt Q9NSU2); assay: hTREX1 Biochemical Assay (fluorescence, dsDNA substrate degradation); settings: biochemical, read-out: hTREX1 IC50
T1 construct: N-terminally His-Tev tagged full length human TREX1; made in house; host or cells: E. coli
T1 sequence (Q9NSU2 1-314): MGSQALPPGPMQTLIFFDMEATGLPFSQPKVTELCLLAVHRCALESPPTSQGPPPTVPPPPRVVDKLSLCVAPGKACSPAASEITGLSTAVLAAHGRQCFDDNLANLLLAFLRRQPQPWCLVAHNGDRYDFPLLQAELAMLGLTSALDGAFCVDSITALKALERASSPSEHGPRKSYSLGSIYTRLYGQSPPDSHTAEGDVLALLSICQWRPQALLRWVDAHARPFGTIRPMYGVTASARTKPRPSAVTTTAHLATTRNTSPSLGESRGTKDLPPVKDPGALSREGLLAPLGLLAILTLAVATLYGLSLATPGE
Outline: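 Fluorescence rises as enzyme degrades a quenched TEX615-labelled dsDNA substrate (60 nM) in 50 mM Tris, 150 mM NaCl, 5 mM MgCl2, pH 7.4. Full-length His-Tev-tagged human TREX1, 4 pM, sits with compound 4 hours at 25° C before substrate; reaction 18 hours, stopped with EDTA.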

full length mouse TREX1 = molecular target: T2, full length mouse TREX1 (Mus musculus, UniProt Q91XB0); assay: mTREX1 Biochemical Assay (fluorescence, dsDNA substrate degradation); settings: biochemical, read-out: mTREX1 IC50
T2 construct: N-terminally His-Tev tagged full length mouse TREX1; made in house; host or cells: E. coli
T2 sequence (Q91XB0 1-314): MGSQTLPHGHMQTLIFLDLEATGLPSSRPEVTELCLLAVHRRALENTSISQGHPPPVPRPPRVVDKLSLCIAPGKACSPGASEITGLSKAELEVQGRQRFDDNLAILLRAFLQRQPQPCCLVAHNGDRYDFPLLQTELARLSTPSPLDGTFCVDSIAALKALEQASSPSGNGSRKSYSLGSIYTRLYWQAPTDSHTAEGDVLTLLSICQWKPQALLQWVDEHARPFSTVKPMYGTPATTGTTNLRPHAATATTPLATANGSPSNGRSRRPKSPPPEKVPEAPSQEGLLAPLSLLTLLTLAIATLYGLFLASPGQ
Outline: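 Reaction run 18 h at 25° C. with 60 nM TEX615/quencher-labelled dsDNA and 6 pM mouse TREX1 in Tris buffer (pH 7.4, 5 mM MgCl2, 1.0% DMSO), enzyme having sat 4 h with compound across 10 concentrations. EDTA quench; substrate degradation measured as fluorescence increase.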

`Cc1cncc(C(c2ccccc2C#N)C(C)c2nc(C(=O)Nc3cnoc3)c(O)c(=O)n2C)n1` (single isomer, unassigned) [Example 53 D2E2] gave an IC50 (full length human TREX1) of over 10 nM and an IC50 (full length mouse TREX1) of over 10 nM.

`Cc1nn(C)cc1C(c1ccc(F)cc1C#N)C(C)c1nc(C(=O)Nc2cnoc2)c(O)c(=O)n1C` (single isomer, unassigned) [Example 56 D1E2] was tested, and the IC50 (full length human TREX1) was over 10 nM and the IC50 (full length mouse TREX1) was over 10 nM.

Compound `CC(c1nc(C(=O)Nc2cnoc2)c(O)c(=O)n1C)C(c1cnn(C)c1)c1ccc(C(F)(F)F)cc1C#N` (single isomer, unassigned) [Example 30 D2E1] has an IC50 (full length human TREX1) of over 10 nM and an IC50 (full length mouse TREX1) of over 10 nM.

For `CCn1ncc(C(c2ccc(F)cc2C#N)C(C)c2nc(C(=O)Nc3cnoc3)c(O)c(=O)n2C)c1C` (single isomer, unassigned) [Example 65 D2E2], the IC50 (full length human TREX1) was under 1 nM and the IC50 (full length mouse TREX1) was over 10 nM.

`CC(c1nc(C(=O)Nc2cnoc2)c(O)c(=O)n1C)C(c1cnn(CCO)c1)c1ccccc1C#N` (single isomer, unassigned) [Example 35 D2E2] showed an IC50 (full length human TREX1) of over 10 nM and an IC50 (full length mouse TREX1) of over 10 nM.

In the case of `CC(c1nc(C(=O)Nc2cnoc2)c(O)c(=O)n1C)C(c1cnn(C(F)F)c1)c1ccccc1C#N` (single isomer, unassigned) [Example 38 D2E1], the IC50 (full length human TREX1) is reported as over 10 nM and the IC50 (full length mouse TREX1) is reported as over 10 nM.

`CC(c1nc(C(=O)Nc2cnoc2)c(O)c(=O)n1C)C(c1cocn1)c1ccccc1C#N` (single isomer, unassigned) [Example 50 D1E2] was tested, and the IC50 (full length human TREX1) was over 10 nM and the IC50 (full length mouse TREX1) was over 10 nM.

For `CC(c1nc(C(=O)Nc2cnoc2)c(O)c(=O)n1C)C(c1ncn(C)n1)c1ccccc1C#N` (single isomer, unassigned) [Example 51 D1E1], the IC50 (full length human TREX1) was over 10 nM and the IC50 (full length mouse TREX1) was over 10 nM.

`CC(c1nc(C(=O)Nc2cnoc2)c(O)c(=O)n1C)C(c1cnn(CCO)c1)c1ccccc1C#N` (single isomer, unassigned) [Example 35 D1E2] was tested, and the IC50 (full length human TREX1) was over 10 nM and the IC50 (full length mouse TREX1) was over 10 nM.

With `Cc1nn(C)cc1C(c1ccc(F)cc1C#N)C(C)c1nc(C(=O)Nc2cnoc2)c(O)c(=O)n1C` (single isomer, unassigned) [Example 56 D2E1] the IC50 (full length human TREX1) was 1 to 10 nM and the IC50 (full length mouse TREX1) was over 10 nM.

For `CC(c1nc(C(=O)Nc2cnoc2)c(O)c(=O)n1C)C(c1ncn(C)n1)c1ccccc1C#N` (single isomer, unassigned) [Example 51 D2E2], the IC50 (full length human TREX1) was over 10 nM and the IC50 (full length mouse TREX1) was over 10 nM.

For `CCn1cc(C(c2ccc(F)cc2C#N)C(C)c2nc(C(=O)Nc3cnoc3)c(O)c(=O)n2C)cn1` (single isomer, unassigned) [Example 16 D1E2], the IC50 (full length human TREX1) was over 10 nM and the IC50 (full length mouse TREX1) was over 10 nM.

`Cc1ncc(C(c2ccccc2Cl)C(C)c2nc(C(=O)Nc3cnoc3)c(O)c(=O)n2C)nc1C` (single isomer, unassigned) [Example 125 D2E2] gave an IC50 (full length human TREX1) of over 10 nM and an IC50 (full length mouse TREX1) of over 10 nM.

`Cc1nn(C)cc1C(c1ccccc1C#N)C(c1nc(C(=O)Nc2cnoc2)c(O)c(=O)n1C)C(F)(F)F` (single isomer, unassigned) [Example 41 D2E1] showed an IC50 (full length human TREX1) of 1 to 10 nM and an IC50 (full length mouse TREX1) of over 10 nM.

`CC(c1nc(C(=O)Nc2cnoc2)c(O)c(=O)n1C)C(c1ccccc1C#N)c1nnnn1C` (single isomer, unassigned) [Example 131 D1E2] showed an IC50 (full length human TREX1) of over 10 nM and an IC50 (full length mouse TREX1) of over 10 nM.

`CC(c1nc(C(=O)Nc2cnoc2)c(O)c(=O)n1C)C(c1cnn(CCN(C)C)c1)c1ccccc1C#N` (single isomer, unassigned) [Example 33 D2E2] was tested, and the IC50 (full length human TREX1) was over 10 nM and the IC50 (full length mouse TREX1) was over 10 nM.

With `CC(c1nc(C(=O)Nc2cnoc2)c(O)c(=O)n1C)C(c1cnn(C)c1)c1cc(F)ccc1C#N` (single isomer, unassigned) [Example 14 D2E2] the IC50 (full length human TREX1) was over 10 nM and the IC50 (full length mouse TREX1) was over 10 nM.

In the case of `COCCn1cc(C(c2cc(F)ccc2C#N)C(C)c2nc(C(=O)Nc3cnoc3)c(O)c(=O)n2C)cn1` (single isomer, unassigned) [Example 18 D2E2], the IC50 (full length human TREX1) is reported as over 10 nM and the IC50 (full length mouse TREX1) is reported as over 10 nM.

In the case of `CC(c1nc(C(=O)Nc2cnoc2)c(O)c(=O)n1C)C(c1ccccc1C#N)c1c(C#N)cnn1C` (single isomer, unassigned) [Example 52 D1E2], the IC50 (full length human TREX1) is reported as over 10 nM and the IC50 (full length mouse TREX1) is reported as over 10 nM.
